According to patent US10105357B2, “Indication of antibiotic drugs for preparation of cancer inhibition pharmaceutical composition” (LAUNX BIOMEDICAL CO., LTD., priority 2014, dated 2018):
Read-outs that look alike come from different tables or passages of the source.

What was measured:
Assay type in all cases: cell-based, human
[1] = system: AGS (Gastric Adenocarcinoma); test: Cell viability analysis, gastric cancer AGS; settings: Homo sapiens
[2] = system: PC3 (p53−) (Prostate Adenocarcinoma); test: Cell viability analysis, prostate cancer PC3; settings: Homo sapiens, 72 h, read-out: cell viability (survival rate), PC3, drug 10 μM, 72 hours, WST-1, OD450 nm
[3] = system: HI650 (Lung Adenocarcinoma); test: Cell viability analysis, lung cancer HI650; settings: Homo sapiens
[4] = system: HL-60 (Acute Promyelocytic Leukemia); test: Cell viability analysis, leukemia HL-60; settings: Homo sapiens
[5] = system: LoVo (Colorectal Adenocarcinoma); test: Cell viability analysis, colon cancer LoVo; settings: Homo sapiens, LoVo
[6] = system: A549 (Lung Adenocarcinoma); test: Cell viability analysis, lung cancer A549; settings: Homo sapiens
[7] = system: MKN-45 (Gastric Adenocarcinoma); test: Cell viability analysis, gastric cancer MKN-45; settings: Homo sapiens
[8] = system: A375 (Amelanotic Melanoma); test: Cell viability analysis, skin cancer A375; settings: Homo sapiens
[9] = system: HeLa (Cervix Adenocarcinoma); test: Cell viability analysis, cervical cancer HeLa; settings: Homo sapiens, HeLa
[10] = system: TSGH-8301 (Urinary Bladder Carcinoma); test: Cell viability analysis, bladder cancer TSGH-8301; settings: Homo sapiens
cancer cell lines = test: Cell viability analysis (WST-1) on cancer cell lines; settings: drug 10 μM, 72 hours, WST-1; Table 3
[11] = system: HepG2 (Hepatocellular Carcinoma); test: Cell viability analysis, hepatic cancer HepG2; settings: Homo sapiens
[12] = system: MCF7 (Mammary Gland, Adenocarcinoma); test: Cell viability analysis, breast cancer MCF7; settings: Homo sapiens
[13] = 72 h, read-out: cell viability (survival rate), AGS, drug 10 μM, 72 hours, WST-1, OD450 nm
[14] = NCI-H1650, 72 h, read-out: cell viability (survival rate), H1650, drug 10 μM, 72 hours, WST-1, OD450 nm
[15] = HL-60, 72 h, read-out: cell viability (survival rate), HL-60, drug 10 μM, 72 hours, WST-1, OD450 nm
[16] = 72 h, read-out: cell viability (survival rate), LoVo, drug 10 μM, 72 hours, WST-1, OD450 nm
[17] = A549, 72 h, read-out: cell viability (survival rate), A549, drug 10 μM, 72 hours, WST-1, OD450 nm
[18] = MKN-45, 72 h, read-out: cell viability (survival rate), MKN-45, drug 10 μM, 72 hours, WST-1, OD450 nm
[19] = A-375, 72 h, read-out: cell viability (survival rate), A375, drug 10 μM, 72 hours, WST-1, OD450 nm
[20] = 72 h, read-out: cell viability (survival rate), HeLa, drug 10 μM, 72 hours, WST-1, OD450 nm
[21] = 72 h, read-out: cell viability (survival rate), TSGH, drug 10 μM, 72 hours, WST-1, OD450 nm
[22] = HepG2, 72 h, read-out: cell viability (survival rate), HepG2, drug 10 μM, 72 hours, WST-1, OD450 nm
[23] = MCF7, 72 h, read-out: cell viability (survival rate), MCF7, drug 10 μM, 72 hours, WST-1, OD450 nm

| SMILES | viability at 10 µM [1, 13] [%] | viability at 10 µM [3, 14] [%] | viability at 10 µM [4, 15] [%] | viability at 10 µM [5, 16] [%] | viability at 10 µM [6, 17] [%] | viability at 10 µM [7, 18] [%] | viability at 10 µM [8, 19] [%] | viability at 10 µM [9, 20] [%] | viability at 10 µM [10, 21] [%] | inhibition effect on different cancer cell lines (cancer cell lines) | viability at 10 µM [11, 22] [%] | viability at 10 µM [12, 23] [%] | other results |
| --- | --- | --- | --- | --- | --- | --- | --- | --- | --- | --- | --- | --- | --- |
| Cc1cc2nc3c(=O)[nH]c(=O)nc-3n(C[C@H](O)[C@H](O)[C@H](O)CO)c2cc1C [Riboflavin (Vitamin B2), Riboflavin] | 74.9 | 51.1 | 90 | 83.3 | 67.6 | 87.3 | 89.7 | 128 | 79.7 | significant inhibition effect | – | – | viability at 10 µM [2]: 79.4% |
| C=C(NC(=O)C(=C)NC(=O)c1csc(C2=N[C@@H]3c4csc(n4)[C@H]4NC(=O)c5csc(n5)[C@H]([C@](C)(O)[C@@H](C)O)NC(=O)[C@H]5CSC(=N5)/C(=C/C)NC(=O)[C@H]([C@@H](C)O)NC(=O)c5csc(n5)[C@]3(CC2)NC(=O)[C@H](C)NC(=O)C(=C)NC(=O)[C@H](C)NC(=O)[C@H]([C@@H](C)CC)N[C@@H]2C=Cc3c([C@H](C)O)cc(nc3[C@H]2O)C(=O)O[C@@H]4C)n1)C(N)=O [Thiostrepton] | – | – | – | – | – | – | – | – | – | significant inhibition effect | – | – | viability at 10 µM ([11]; HepG2, drug 10 μM, 72 hours, WST-1, OD450 nm, read-out: cell viability (survival rate), HepG2): 49.2%; viability at 10 µM ([1]; drug 10 μM, 72 hours, WST-1, OD450 nm, read-out: cell viability (survival rate), AGS): 25.7%; viability at 10 µM ([3]; NCI-H1650, drug 10 μM, 72 hours, WST-1, OD450 nm, read-out: cell viability (survival rate), H1650): 45.4%; viability at 10 µM ([4]; HL-60, drug 10 μM, 72 hours, WST-1, OD450 nm, read-out: cell viability (survival rate), HL-60): 37.8%; viability at 10 µM ([12]; MCF7, drug 10 μM, 72 hours, WST-1, OD450 nm, read-out: cell viability (survival rate), MCF7): 65%; viability at 10 µM ([5]; drug 10 μM, 72 hours, WST-1, OD450 nm, read-out: cell viability (survival rate), LoVo): 52.9%; viability at 10 µM ([6]; A549, drug 10 μM, 72 hours, WST-1, OD450 nm, read-out: cell viability (survival rate), A549): 62.2%; viability at 10 µM ([7]; MKN-45, drug 10 μM, 72 hours, WST-1, OD450 nm, read-out: cell viability (survival rate), MKN-45): 56.7%; viability at 10 µM ([8]; A-375, drug 10 μM, 72 hours, WST-1, OD450 nm, read-out: cell viability (survival rate), A375): 27.6%; viability at 10 µM ([9]; drug 10 μM, 72 hours, WST-1, OD450 nm, read-out: cell viability (survival rate), HeLa): 37.8%; viability at 10 µM ([10]; drug 10 μM, 72 hours, WST-1, OD450 nm, read-out: cell viability (survival rate), TSGH): 20.1% |
| Clc1ccc(C(Cn2ccnc2)OCc2csc3c(Cl)cccc23)c(Cl)c1 (centres unmarked) [Sertaconazole nitrate] | 97.1 | 96.3 | 73.4 | 94.9 | 75.4 | 69.5 | 52 | 58.9 | 89.4 | significant inhibition effect | 77.4 | 76.4 | – |
| Nc1ccn([C@H]2CC[C@@H](CO)O2)c(=O)n1 [Zalcitabine] | 69.1 | 86.4 | 119 | 91 | 66.3 | 70.4 | 83.5 | 89.2 | 79 | significant inhibition effect | 96.9 | 52.7 | – |
| CC(=O)OCC1=C(C(=O)O)N2C(=O)[C@@H](NC(=O)CSc3ccncc3)[C@H]2SC1 [Cephapirin Sodium] | 79.8 | 76.2 | 84.3 | 92.8 | 57.7 | 69.1 | 50.2 | 69.2 | 78.2 | significant inhibition effect | 79.8 | 49.5 | – |
| O=c1[nH]cnc2c1ncn2[C@H]1CC[C@@H](CO)O1 [Didanosine (Videx), Didanosine] | 48.7 | 64.2 | 126 | 95.1 | 67.5 | 62 | 77.2 | 80.3 | 76.7 | significant inhibition effect | 119 | 78.4 | – |
| CCn1cc(C(=O)O)c(=O)c2ccc(C)nc21 [Nalidixic acid (NegGram), Nalidixic acid] | 57.3 | 72 | 113 | 91.5 | 83.8 | 54.9 | 87.9 | 95.8 | 46.3 | significant inhibition effect | 96.8 | 86 | – |
